Laboratory results as given in ChEMBL document CHEMBL4420078, “Sos1 inhibitors for cancer treatment” (2016).
Calls of active or inactive are those of the source. The calls are words filed in the database; no cut-off is given here.

Columns and labels:
MIA PaCa-2 [1] = assay: Growth inhibition of human MIAPaCa2 cells at 40 uM incubated for 3 days by MTS assay relative to control; type: functional; settings: MIA PaCa-2, 72 h, read-out: GI
[2] = molecular target: T1, Son of sevenless homolog 1 (Homo sapiens) (UniProt Q07889); assay: Inhibition of SOS1 in overnight serum-starved human MIAPaCa2 cells assessed as reduction in MEK phosphorylation at 20 to 40 uM by Western blotting analysis
T1 sequence (whole entry): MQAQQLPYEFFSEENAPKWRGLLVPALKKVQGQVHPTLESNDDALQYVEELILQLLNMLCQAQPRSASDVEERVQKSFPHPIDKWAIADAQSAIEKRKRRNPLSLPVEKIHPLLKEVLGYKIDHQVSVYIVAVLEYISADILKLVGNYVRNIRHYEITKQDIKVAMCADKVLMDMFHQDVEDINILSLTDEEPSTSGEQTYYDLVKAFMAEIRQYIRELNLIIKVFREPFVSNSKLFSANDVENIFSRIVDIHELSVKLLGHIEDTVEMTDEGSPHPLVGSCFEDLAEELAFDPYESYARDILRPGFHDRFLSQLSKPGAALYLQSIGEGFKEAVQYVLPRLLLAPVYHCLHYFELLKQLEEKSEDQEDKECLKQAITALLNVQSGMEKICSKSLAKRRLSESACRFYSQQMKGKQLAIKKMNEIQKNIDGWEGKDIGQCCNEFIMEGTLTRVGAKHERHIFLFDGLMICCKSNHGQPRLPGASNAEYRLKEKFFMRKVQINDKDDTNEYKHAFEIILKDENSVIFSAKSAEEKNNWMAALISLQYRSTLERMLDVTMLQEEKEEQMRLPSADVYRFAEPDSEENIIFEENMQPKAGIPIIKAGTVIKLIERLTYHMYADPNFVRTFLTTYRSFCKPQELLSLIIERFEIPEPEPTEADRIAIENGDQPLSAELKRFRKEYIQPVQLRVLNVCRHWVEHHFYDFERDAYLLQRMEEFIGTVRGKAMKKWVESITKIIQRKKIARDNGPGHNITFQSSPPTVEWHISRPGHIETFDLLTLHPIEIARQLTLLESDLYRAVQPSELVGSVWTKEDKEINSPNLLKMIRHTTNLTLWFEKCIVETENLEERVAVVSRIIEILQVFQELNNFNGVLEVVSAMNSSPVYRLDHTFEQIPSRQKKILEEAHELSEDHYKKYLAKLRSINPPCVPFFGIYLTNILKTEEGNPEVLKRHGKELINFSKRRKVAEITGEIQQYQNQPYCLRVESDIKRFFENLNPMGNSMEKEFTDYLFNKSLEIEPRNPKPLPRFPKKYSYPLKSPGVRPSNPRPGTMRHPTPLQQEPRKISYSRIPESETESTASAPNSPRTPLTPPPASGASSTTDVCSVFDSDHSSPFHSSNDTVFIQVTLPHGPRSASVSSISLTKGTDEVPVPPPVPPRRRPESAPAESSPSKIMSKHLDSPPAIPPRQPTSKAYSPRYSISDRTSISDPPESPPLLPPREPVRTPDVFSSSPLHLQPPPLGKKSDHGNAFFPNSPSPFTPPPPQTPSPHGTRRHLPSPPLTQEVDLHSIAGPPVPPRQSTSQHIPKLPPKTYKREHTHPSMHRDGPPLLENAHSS

[3] = molecular target: T2, Son of sevenless homolog 1 (Mus musculus) (UniProt Q62245); assay: Inhibition of SOS1 in overnight serum-starved mouse NIH/3T3 cells assessed as reduction in ERK1/2 phosphorylation at 20 to 40 uM pre-incubated for 2 hrs before EGF stimulation for 5 mins by Western blot analysis
T2 sequence (whole entry): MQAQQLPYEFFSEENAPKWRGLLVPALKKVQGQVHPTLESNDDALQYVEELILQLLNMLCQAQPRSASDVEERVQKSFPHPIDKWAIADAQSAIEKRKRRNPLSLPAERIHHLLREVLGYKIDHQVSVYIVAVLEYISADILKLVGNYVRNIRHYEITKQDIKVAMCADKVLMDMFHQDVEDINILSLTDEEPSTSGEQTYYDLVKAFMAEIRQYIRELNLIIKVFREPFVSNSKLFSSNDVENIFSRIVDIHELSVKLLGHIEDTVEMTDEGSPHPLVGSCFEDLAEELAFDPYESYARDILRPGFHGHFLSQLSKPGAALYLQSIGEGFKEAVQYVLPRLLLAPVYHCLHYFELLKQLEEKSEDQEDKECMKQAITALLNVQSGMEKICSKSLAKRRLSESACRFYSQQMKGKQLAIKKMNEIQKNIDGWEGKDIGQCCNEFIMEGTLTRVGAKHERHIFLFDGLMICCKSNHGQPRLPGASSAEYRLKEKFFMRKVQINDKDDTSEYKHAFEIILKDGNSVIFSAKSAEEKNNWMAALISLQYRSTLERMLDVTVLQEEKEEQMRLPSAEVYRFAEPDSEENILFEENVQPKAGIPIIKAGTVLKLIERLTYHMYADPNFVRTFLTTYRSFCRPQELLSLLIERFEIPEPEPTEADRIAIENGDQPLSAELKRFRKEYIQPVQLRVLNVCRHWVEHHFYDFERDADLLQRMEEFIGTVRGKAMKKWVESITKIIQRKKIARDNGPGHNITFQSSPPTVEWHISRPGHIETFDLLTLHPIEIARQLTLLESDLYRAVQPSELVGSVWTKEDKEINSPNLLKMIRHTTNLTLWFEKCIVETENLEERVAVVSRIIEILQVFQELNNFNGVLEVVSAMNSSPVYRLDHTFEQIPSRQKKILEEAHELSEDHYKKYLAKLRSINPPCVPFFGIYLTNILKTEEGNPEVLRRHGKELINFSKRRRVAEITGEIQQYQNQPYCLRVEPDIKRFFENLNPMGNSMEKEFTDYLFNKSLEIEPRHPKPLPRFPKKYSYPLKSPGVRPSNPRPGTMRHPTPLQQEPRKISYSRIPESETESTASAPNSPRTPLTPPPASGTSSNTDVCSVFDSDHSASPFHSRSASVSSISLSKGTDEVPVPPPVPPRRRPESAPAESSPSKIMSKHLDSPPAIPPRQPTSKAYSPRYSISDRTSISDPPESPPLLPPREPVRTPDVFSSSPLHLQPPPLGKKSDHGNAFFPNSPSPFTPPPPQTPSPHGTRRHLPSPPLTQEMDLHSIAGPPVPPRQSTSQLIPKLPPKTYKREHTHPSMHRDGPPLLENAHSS

MIA PaCa-2 [4] = assay: Effect on total ERK protein levels in overnight serum-starved human MIAPaCa2 cells at 20 to 60 uM incubated for 2 hrs by Western blotting analysis; type: ADME, cell-based; settings: mia paca-2, 2 h
[5] = molecular target: T2, Son of sevenless homolog 1 (Mus musculus); assay: Inhibition of SOS1 in overnight serum-starved mouse NIH/3T3 cells assessed as effect on Rac1-GTP levels at 20 to 50 uM pre-incubated for 2 hrs before EGF stimulation for 5 mins by GST-Raf1 effector domain pulldown assay

SMILES: O=[N+]([O-])c1ccccc1/C=C/C=C1c2ccccc2-c2ccccc21
- inhibition of growth at 40 µM (MIA PaCa-2 [1]): 29%
- inhibition [2]: Active

SMILES: O=C(O)c1cc2c3c(c1)C1C=CCC1C(c1ccccc1Cl)N3CC1CC=CC21 (stereo not given)
- inhibition [3]: Active

SMILES: O=C1Oc2ccccc2C(=O)/C1=C/N1C(=O)/C(=C/c2ccc([N+](=O)[O-])cc2)SC1=S
- Activity (MIA PaCa-2 [4]): Non-Toxic
- inhibition [5]: inactive
